From patent US6352989B1, “Nitrogenous heterocyclic derivatives and medicine thereof” (Eisai Co., Ltd., priority 1998, dated 2002)
pIC50: −log10 of the molar value.

Assays:
[1] = target: PDE4D (Homo sapiens, UniProt Q08499); test: Inhibitory action on PDE4 (homogenate of BHK cells expressing cloned human PDE4D, [3H]-cAMP hydrolysis); assay type: biochemical; settings: average in triplicate measurements; 1 μM [3H]-cAMP substrate; read-out: PDE4 Inhibition IC50
Procedure: Inhibitory Action on PDE4: PDE4D was cloned from human placental mRNA by PCR techniques, and cDNA after an alternative spliced site (Mol. Cell. Biol., 13, 6558, 1993) was expressed in BHK cells. Two clones of BHK cells expressing PDE4 activity which was 100 or more times as high as endogenous PDE4 activity were obtained, and one of the clones was cultured in a large amount, and its homogenate was used as an enzyme source of PDE4.
50 mM Tris-HCl (pH 8.0), 0.1 mM EGTA, 0.1 mM MgCl2, 1 μM [^3H]-cGMP (100,000 dpm/tube) or 1 μM [^3H]-cAMP (100,000 dpm/tube) was added to the above homogenate, and 0.2 ml of the mixture was incubated at 30° C. for 10 to 20 minutes in the presence or absence of a test compound. The enzyme reaction was stopped by incubating the mixture at 95° C. for 1.5 minutes, and after cooling on ice, 50 μl nucleotidase (10 units/ml) was added thereto and incubated at 30° C. for 10 minutes. 550 μl of AG1-X2 resin slurry (H2O:resin=2:1) was added to the reaction mixture, then left at 4° C. for 10 minutes and centrifuged (10,000 rpm, 2.5 minutes, 4° C.), and 450 μl of the supernatant was measured for radioactivity.
The activity was compared in terms of IC50 (concentration of the compound at which 50% of the enzyme activity is inhibited) IC50 was determined by plotting of the concentration of cAMP as the substrate and the concentration of the compound on logarithmic graph paper. The results shown in Table 1 are the average in triplicate measurements. The test compound was first dissolved in DMSO and then diluted with the above-mentioned buffer for use.

[2] = test system: ZDP rat; test: Blood sugar-depressing action (ZDP rat); assay type: in vivo
Procedure: Blood Sugar-Depressing Action (ZDP rat): A test compound was suspended in 0.5% MC, and the suspension was orally administered to an animal once every day for 1 week. After the administration, the rat was allowed to fast for 4 hours, and blood was collected from the tail vein, added immediately to 0.6 M HClO4 (0.6 M HClO4=1:9), and centrifuged to give a supernatant which was then measured for glucose level by Glocose CII Test Wako Kit (Wako Pure Chemical Industries, Ltd., JP). In the table, values in the parentheses under the blood sugar level (mg/dl) indicate glucose levels relative to those (=100%) before the administration of the test compound.

[3] = test system: TNFα production; test: Inhibitory action on production of TNFα (LPS-stimulated human peripheral blood monocyte fraction, ELISA); assay type: cell-based; settings: LPS-stimulated human peripheral blood monocytes, incubation 18 to 24 hours, read-out: TNF^α Inhibition IC50
Procedure: Inhibitory Action on Production of TNF: Human peripheral blood was collected in […] and centrifuged (1000 rpm, 10 minutes, at room temperature) to remove platelet rich plasma, and then the blood sample was mixed with Hank's balanced salt solution (HBSS) (with an equal volume to the removed plasma) containing penicillin (100 units/ml) and streptomycin (100 μg/ml) (referred to hereinafter as “p, s”). Ficoll-paque (Pharmacia) with an volume of 3/5 relative to the sample mixture was layered on the lower layer and centrifuged at 1500 rpm for 30 minutes at room temperature, and the monocyte nucleus fraction was collected. The resulting monocyte nucleus fraction was washed twice with p, s-containing HBSS and prepared as a cell float at a cell density of 2-4×10^6 cells/ml in p, s-containing RPMI1640 (containing 10% FCS). 400 μl of the prepared cell float was added to a 48-wells culture plate, and 50 μl LPS (100 ng/ml of saline) and 50 μl of each of compound solutions prepared at various concentrations were added to each well, followed by incubation at 37° C. in a 5% CO2 mixed air. After incubation for 18 to 24 hours, the incubated buffer was separated, and TNFα thus released from the cells was measured by an ELISA kit (Amasham).
The inhibitory action of the compound on production of TNFα was determined in terms of IC50 by plotting the concentrations of the compound and the amount of produced TNFα (%relative to the control) on semilogarithmic graph paper. The control (100%) for the amount of TNFα produced was obtained by subtracting the amount of TNFα produced in the (basal) group where neither LPS nor the compound was added, from the amount of TNFα produced in the (control) group where the compound was not added.
After the compound was dissolved at a concentration of […] in DMSO solution containing the compound at a concentration which was 1000 times as high as the final concentration, and then the solution was diluted with RPMI1640 containing 10% FCS and p,s, to prepare a solution containing the compound at a concentration which was 10 times as high as the final concentration. In place of the compound solution, RPMI1640 (1% DMSO, 10% FCS) containing p, s was added to the control group basal group. In place of the LPS solution, physiological saline was added to the basal group.

Sequence of PDE4D (Q08499 303-809 limits assumed): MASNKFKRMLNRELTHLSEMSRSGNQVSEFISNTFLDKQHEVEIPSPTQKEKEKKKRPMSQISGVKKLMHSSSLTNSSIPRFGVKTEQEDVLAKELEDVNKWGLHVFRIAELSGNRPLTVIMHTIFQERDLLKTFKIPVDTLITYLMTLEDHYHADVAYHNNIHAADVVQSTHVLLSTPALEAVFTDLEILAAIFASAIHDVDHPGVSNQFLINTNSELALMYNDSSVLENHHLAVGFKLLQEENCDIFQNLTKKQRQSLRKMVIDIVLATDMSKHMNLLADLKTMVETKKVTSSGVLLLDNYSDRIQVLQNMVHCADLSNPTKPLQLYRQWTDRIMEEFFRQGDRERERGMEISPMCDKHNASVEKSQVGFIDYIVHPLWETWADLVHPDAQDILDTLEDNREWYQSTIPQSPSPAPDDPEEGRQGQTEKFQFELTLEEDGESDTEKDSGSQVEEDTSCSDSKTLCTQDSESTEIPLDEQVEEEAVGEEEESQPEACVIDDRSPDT

pIC50 [1]: 8.59
pIC50 [3]: 8.64
melting point: 193 to 195 °C
SMILES: CNc1ccc(C(=O)Nc2cccc(-c3nc(NC)nc4cc(OC)c(OC)cc34)c2)cn1 [Example 32, 6,7-Dimethoxy-2-methylamino-4-[3-(6-methylaminonicotinoylamino)phenyl]quinazoline]
Blood sugar level, Before the administration ([2]; baseline before the administration of the test compound): 478.5 ± 7.3 mg/dL
Blood sugar level, After the continuous administration for 1 week ([2]; oral, once every day for 1 week, 4 hours fast, tail vein blood): 349.3 ± 44.3 mg/dL
Glucose level relative to that (=100%) before the administration, after the continuous administration for 1 week ([2]; oral, once every day for 1 week, value in parentheses): (73.0) %
